PubChem BioAssay AID248 (DTP/NCI, 2004)
Where “and” joins values, the source holds several entries; their conditions need not be identical. Equal entries are not always repeated. Toxic doses and inconclusive results are not listed. No stated cut-off is given here; in the data, active means T/C of 150% or more; inactive means T/C below 125%.

Test system: L1210 leukemia ip in BDF1 mice, survival T/C
Assay: NCI In Vivo Anticancer Drug Screen. Data for tumor model L1210 Leukemia (intraperitoneal) in B6D2F1 (BDF1) mice
Settings: endpoint: mean survival time, higher = longer survival
Method in brief: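 Read-out is survival time, reported as the treated-group measurement over the vehicle-control measurement.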

[1] = dose: 100.0 mg/kg/injection, schedule: Q01DX009 (ip), vehicle: Klucel (hydroxypropylcellulose) (HPC)
[2] = dose: 100.0 mg/kg/injection, schedule: Q01DX001 (ip), vehicle: carboxymethylcellulose (CMC)
[3] = dose: 200.0 mg/kg/injection, schedule: Q01DX001 (ip), vehicle: carboxymethylcellulose (CMC)
[4] = dose: 400.0 mg/kg/injection, schedule: Q01DX001 (ip), vehicle: carboxymethylcellulose (CMC)
[5] = dose: 12.5 mg/kg/injection, schedule: Q01DX009 (ip), vehicle: Klucel (hydroxypropylcellulose) (HPC)
[6] = dose: 50.0 mg/kg/injection, schedule: Q01DX009 (ip), vehicle: saline

Measured: T/C

CCCCCCCCCCCC(=O)[O][Sn]([CH2]CCC)([CH2]CCC)[O]C(=O)CCCCCCCCCCC
inactive: dose: 12.5 mg/kg/injection, schedule: Q04DX003 (ip), vehicle: saline with Tween-80 108 % of control

CCC[CH2][Sn]([I])([CH2]I)[CH2]CCC
inactive: dose: 6.25 mg/kg/injection, schedule: Q04DX002 (ip), vehicle: saline with Tween-80 112 % of control | dose: 12.5 mg/kg/injection, schedule: Q04DX002 (ip), vehicle: saline with Tween-80 112 % of control

COc1cc(NCCCNc2c3ccc(Cl)cc3nc3ccc(OC)cc23)c2ncccc2c1
inactive: [1] 100 % of control

C[C@]12C=CC(=O)C=C1CC[C@@H]1[C@@H]2[C@@H](O)C[C@@]2(C)[C@H]1CC[C@]2(O)C(=O)COC(=O)CCC(=O)O
inactive: dose: 63.0 mg/kg/injection, schedule: Q01DX015 (sc), vehicle: steriod suspending solution 106 % of control | dose: 125.0 mg/kg/injection, schedule: Q01DX015 (sc), vehicle: steriod suspending solution 106 % of control | dose: 250.0 mg/kg/injection, schedule: Q01DX015 (sc), vehicle: steriod suspending solution 96 % of control | dose: 500.0 mg/kg/injection, schedule: Q01DX015 (sc), vehicle: steriod suspending solution 108 % of control and 116 % of control

O=CN(O)CC(=O)O
inactive: dose: 62.5 mg/kg/injection, schedule: Q01DX010 (ip), vehicle: saline 95 % of control and 98 % of control | dose: 62.5 mg/kg/injection, schedule: Q01DX Z (ip), vehicle: saline 93 % of control | dose: 125.0 mg/kg/injection, schedule: Q01DX010 (ip), vehicle: saline 95 % of control | dose: 125.0 mg/kg/injection, schedule: Q01DX Z (ip), vehicle: saline 98 % of control | dose: 250.0 mg/kg/injection, schedule: Q01DX010 (ip), vehicle: saline 98 % of control and 106 % of control | dose: 250.0 mg/kg/injection, schedule: Q01DX Z (ip), vehicle: saline 92 % of control | dose: 500.0 mg/kg/injection, schedule: Q01DX010 (ip), vehicle: saline 96 % of control and 101 % of control | dose: 500.0 mg/kg/injection, schedule: Q01DX Z (ip), vehicle: saline 88 % of control | dose: 575.0 mg/kg/injection, schedule: Q02DX010 (ip), vehicle: other 101 % of control | dose: 860.0 mg/kg/injection, schedule: Q02DX010 (ip), vehicle: other 107 % of control | dose: 1300.0 mg/kg/injection, schedule: Q02DX010 (ip), vehicle: other 105 % of control | dose: 2000.0 mg/kg/injection, schedule: Q02DX010 (ip), vehicle: other 106 % of control | dose: 3000.0 mg/kg/injection, schedule: Q02DX010 (ip), vehicle: other 117 % of control

Cc1cc(N(CCCl)CCCl)ccc1C=Nc1ccc(-c2csc(COc3ccccc3)n2)c(Cl)c1
inactive: [2] 95 % of control | [3] 108 % of control | [4] 103 % of control

Clc1ccc2c(c1)Sc1ccccc1O2
inactive: dose: 100.0 mg/kg/injection, schedule: Q04DX002 (ip), vehicle: saline with Tween-80 101 % of control | dose: 200.0 mg/kg/injection, schedule: Q04DX002 (ip), vehicle: saline with Tween-80 101 % of control | dose: 400.0 mg/kg/injection, schedule: Q04DX002 (ip), vehicle: saline with Tween-80 97 % of control

O=C1C=CC(=C(c2ccccc2)c2ccccc2)C=C1
inactive: [5] 106 % of control | dose: 25.0 mg/kg/injection, schedule: Q01DX009 (ip), vehicle: Klucel (hydroxypropylcellulose) (HPC) 95 % of control | dose: 50.0 mg/kg/injection, schedule: Q01DX009 (ip), vehicle: Klucel (hydroxypropylcellulose) (HPC) 107 % of control | [6] 87 % of control | dose: 75.0 mg/kg/injection, schedule: Q04DX003 (ip), vehicle: saline 90 % of control | dose: 150.0 mg/kg/injection, schedule: Q04DX003 (ip), vehicle: saline 102 % of control

Cl[C](Cl)(Cl)[Hg][c]1ccccc1
inactive: dose: 3.0 mg/kg/injection, schedule: Q01DX009 (ip), vehicle: Klucel (hydroxypropylcellulose) (HPC) 88 % of control | dose: 6.0 mg/kg/injection, schedule: Q01DX009 (ip), vehicle: Klucel (hydroxypropylcellulose) (HPC) 92 % of control | dose: 12.0 mg/kg/injection, schedule: Q01DX009 (ip), vehicle: Klucel (hydroxypropylcellulose) (HPC) 90 % of control | [5] 110 % of control

COc1ccc(C(=O)C(=O)c2ccc(OC)cc2)cc1
inactive: dose: 100.0 mg/kg/injection, schedule: Q04DX002 (ip), vehicle: Klucel (hydroxypropylcellulose) (HPC) 98 % of control | dose: 200.0 mg/kg/injection, schedule: Q04DX002 (ip), vehicle: Klucel (hydroxypropylcellulose) (HPC) 98 % of control | dose: 400.0 mg/kg/injection, schedule: Q04DX002 (ip), vehicle: Klucel (hydroxypropylcellulose) (HPC) 95 % of control

CC1NC1C (stereo not drawn)
inactive: dose: 45.0 mg/kg/injection, schedule: Q04DX003 (ip), vehicle: saline 102 % of control | dose: 90.0 mg/kg/injection, schedule: Q04DX003 (ip), vehicle: saline 98 % of control | dose: 100.0 mg/kg/injection, schedule: Q01DX009 (ip), vehicle: saline 103 % of control | dose: 100.0 mg/kg/injection, schedule: Q04DX003 (ip), vehicle: saline 108 % of control | dose: 180.0 mg/kg/injection, schedule: Q04DX003 (ip), vehicle: saline 107 % of control | dose: 200.0 mg/kg/injection, schedule: Q01DX009 (ip), vehicle: saline 108 % of control | dose: 200.0 mg/kg/injection, schedule: Q04DX003 (ip), vehicle: saline 114 % of control | dose: 400.0 mg/kg/injection, schedule: Q01DX009 (ip), vehicle: saline 103 % of control | dose: 400.0 mg/kg/injection, schedule: Q04DX003 (ip), vehicle: saline 119 % of control

S=C1NC(c2ccccc2)NC(c2ccccc2)S1 (stereo not drawn)
inactive: dose: 12.0 mg/kg/injection, schedule: Q01DX009 (ip), vehicle: saline 93 % of control | dose: 25.0 mg/kg/injection, schedule: Q01DX009 (ip), vehicle: saline 90 % of control | [6] 90 % of control

COc1cc(CCN(C)C)cc(OC)c1OC
inactive: dose: 75.0 mg/kg/injection, schedule: Q01DX001 (ip), vehicle: saline 95 % of control | dose: 150.0 mg/kg/injection, schedule: Q01DX001 (ip), vehicle: saline 101 % of control | dose: 300.0 mg/kg/injection, schedule: Q01DX001 (ip), vehicle: saline 102 % of control

CCc1cc(C)cc(OC(=O)Nc2cc(Cl)ccc2C)c1
inactive: [1] 95 % of control | dose: 200.0 mg/kg/injection, schedule: Q01DX009 (ip), vehicle: Klucel (hydroxypropylcellulose) (HPC) 90 % of control | dose: 400.0 mg/kg/injection, schedule: Q01DX009 (ip), vehicle: Klucel (hydroxypropylcellulose) (HPC) 100 % of control

O=C(O)CCCCCCC1CCCC1=O (stereo not drawn)
inactive: dose: 100.0 mg/kg/injection, schedule: Q01DX009 (ip), vehicle: saline sonified 97 % of control | dose: 200.0 mg/kg/injection, schedule: Q01DX009 (ip), vehicle: saline sonified 91 % of control | dose: 400.0 mg/kg/injection, schedule: Q01DX009 (ip), vehicle: saline sonified 97 % of control

CCOC(=O)CCCC(=O)c1ccc(OC)c(OC)c1
inactive: [2] 100 % of control | [3] 102 % of control | [4] 100 % of control

NNc1ncnc2nncnc12
inactive: dose: 9.5 mg/kg/injection, schedule: Q01DX001 (ip), vehicle: other 98 % of control | dose: 19.0 mg/kg/injection, schedule: Q01DX001 (ip), vehicle: other 105 % of control | dose: 38.0 mg/kg/injection, schedule: Q01DX001 (ip), vehicle: other 104 % of control

CC(=O)NCCc1ccc(N)cc1
inactive: dose: 100.0 mg/kg/injection, schedule: Q01DX001 (ip), vehicle: saline 108 % of control | dose: 200.0 mg/kg/injection, schedule: Q01DX001 (ip), vehicle: saline 101 % of control | dose: 400.0 mg/kg/injection, schedule: Q01DX001 (ip), vehicle: saline 98 % of control

O=c1c(-c2ccccc2)coc2ccccc12
inactive: dose: 100.0 mg/kg/injection, schedule: Q04DX003 (ip), vehicle: saline with Tween-80 97 % of control | dose: 200.0 mg/kg/injection, schedule: Q04DX003 (ip), vehicle: saline with Tween-80 92 % of control | dose: 400.0 mg/kg/injection, schedule: Q04DX003 (ip), vehicle: saline with Tween-80 90 % of control

NC(=S)N/N=C/c1nccn1Cc1ccccc1
inactive: dose: 100.0 mg/kg/injection, schedule: Q01DX001 (ip), vehicle: Klucel (hydroxypropylcellulose) (HPC) 104 % of control | dose: 100.0 mg/kg/injection, schedule: Q01DX001 (ip), vehicle: other 101 % of control | dose: 200.0 mg/kg/injection, schedule: Q01DX001 (ip), vehicle: Klucel (hydroxypropylcellulose) (HPC) 101 % of control | dose: 200.0 mg/kg/injection, schedule: Q01DX001 (ip), vehicle: other 96 % of control | dose: 400.0 mg/kg/injection, schedule: Q01DX001 (ip), vehicle: Klucel (hydroxypropylcellulose) (HPC) 104 % of control
